In article PMC12764842 (Acta Pharmacologica Sinica, 2025):

Tested on: LCMV
Design: species or system BALB/c mice
Settings: mouse, in vivo

Compound	Viral copies in the liver	Body weight decrease of LCMV-challenged mice
O=C1O[C@H]2[C@@H]3OC(=O)c4cc(O)c(O)c(O)c4-c4c(O)c(O)c5oc(=O)c6c(c(O)c(O)c7oc(=O)c4c5c76)-c4c(cc(O)c(O)c4O)C(=O)OC[C@H]3OC(O)[C@@H]2OC(=O)c2cc(O)c(O)c(O)c2-c2c1cc(O)c(O)c2O (mixture of isomers) [Punicalagin]	no effect	
O=C(O)C[C@@H]1C(=O)O[C@H]2[C@H](OC(=O)c3cc(O)c(O)c(O)c3)[C@@H](OC(=O)c3cc(O)c(O)c4c3[C@H]1[C@H](O)C(=O)O4)[C@H](OC(=O)c1cc(O)c(O)c(O)c1)O[C@@H]2COC(=O)c1cc(O)c(O)c(O)c1 [Chebullinic acid, chebulinic acid]	no effect	
O=C(/C=C/c1ccc(O)c(O)c1/C=C/c1ccc(O)c(O)c1)O[C@H](Cc1ccc(O)c(O)c1)C(=O)O [Salvianolic acid A, salvianolic acid A]	significantly reduced	
NC(=O)c1nc(F)c[nH]c1=O [T-705, favipiravir, reference compound]	significantly reduced	decrease was halted
